This passage reports melting point results from a melting point compilation (Tetko et al.; mined from patent text by program, amines drawn as free bases though some values may be those of a salt).

Molecules are shown by their SMILES. A value given as a limit tells only on which side of the number the result lay.

Turning to `COC(=O)c1cc(N=[N+]=[N-])ccc1Nc1ccccc1`, the melting point was in the range of 64 to 65 °C.

`NCCNC(=O)COc1ccc(C2=NNC(=O)CC2)cc1`: the melting point was 176 to 178 °C.

As to `CS(=O)(=O)c1cccc(Nc2cc(-c3ccccc3O)ncn2)c1`, the melting point is 214 to 216 °C.

On to `Nc1nc(N)nc(N2CCSCC2)n1`, for which the melting point fell in the range of 237 to 239 °C.

Take `ICCOc1ccc(C2=C(c3ccccc3)CCCc3cc(OC4CCCCO4)ccc32)cc1` (centres undefined): the melting point lay in the range of 165 to 166 °C.

Turning to `CCN1CCc2cc(OC)c(OC)cc2C12CCC(C=O)CC2C1c2cc(OC)c(OC)cc2CCN1C` (centres undefined), the melting point fell in the range of 137 to 139 °C.

On to `CC(=O)Nc1cc2c(cc1C#N)C(Nc1ccc(C(=O)OC(C)(C)C)c(F)c1)CC2` (centres undefined), for which the melting point lay within 172 to 173 °C.

Molecule `CCS(=O)(=O)Nc1ccc(C(=O)CN2CCN(c3ccncc3)CC2)cc1` displayed a melting point of 204 to 208 °C.

The molecule `Cc1cc(-c2nc3cccnn3c2-c2ccnc(NC(=O)c3cncc(Cl)c3)c2)ccc1F` had a melting point of 252 to 254 °C.

On to `COc1ccc(-c2ccccc2)cc1OC1CCCC1`, for which the melting point is 62 to 64 °C.

With `COc1ccc2c(c1)C1(CCCCc3ccccc31)NC2=O` (centres undefined), the melting point is 189 to 190 °C.

`CN(C)CCc1cccc(OCCN2C(=O)c3ccccc3C2=O)c1` came in with a melting point of 84 to 85 °C.

`O=Cc1ccc2c(c1)C(=O)OC2` yielded a melting point of 134 °C.

As for `Cn1c(COc2ccc(CC(OCc3ccc(F)cc3)C(=O)O)cc2)nc2ccc(Oc3ccc(C45CC6CC(CC(C6)C4)C5)cc3)cc21` (centres undefined), the melting point lay within 148 to 149 °C.

Take `O=S(=O)(NCCCN1CCC(Oc2ccc(Cl)c(Cl)c2)CC1)c1ccc(-c2ccccn2)s1`: the melting point was found to be 115 °C.

Consider `CSc1ccc(-c2nc(=O)c3ccccc3s2)cn1`, for which the melting point is 168 to 170 °C.

In turn, `CC(=O)O[C@@H]1NC(=O)[C@H]1NC(=O)OCc1ccccc1` registered a melting point of 110 to 113 °C.

As to `O=C1Nc2c(ccc3c2CCCC3)SC1CCCN1CCN(c2ccc(F)cc2)CC1` (centres undefined), the melting point was in the range of 145 to 147 °C.

In turn, `CN(CC#N)S(=O)(=O)c1cc(-n2c(=O)cc(C(F)(F)F)n(C)c2=O)c(F)cc1Cl` registered a melting point of 155 to 157 °C.

`Nc1n[nH]c(-c2cc(Cl)nc(Cl)c2)n1` registered a melting point of 240 to 250 °C.

Molecule `Cn1nc(-c2nc(C(N)=O)c(N)nc2-c2ccccc2)ccc1=O` returned a melting point greater than 250 °C.

For `CCOC(=O)COc1ccc(/C=C/c2nc3c(c(=O)n(CC)c(=O)n3CC)n2C)cc1`, the melting point stood at 192 °C.

`CCCOc1ccccc1-c1ncc(C(=O)OCC)c(=O)[nH]1` came in with a melting point of 106 to 107 °C.

Regarding `Cc1ccc(-c2ccccc2C(=O)N(C)NC(N)=O)cc1`, the melting point was in the range of 217 to 218 °C.

Take `Cc1c(-c2ccc(O)cc2)n(Cc2ccc(OCCN3C[C@@H]4CC[C@H]3C4)cc2)c2ccc(O)cc12`: the melting point is 125 to 130 °C.

For the molecule `COCC1(C)CCOc2ccc(/C=C/c3ccc(C(=O)O)cc3)cc21` (centres undefined), the melting point lay in the range of 209 to 210 °C.

Regarding `Cc1ccc([N+](=O)[O-])c(Cl)c1C#N`, the melting point was 106 to 107 °C.

In turn, `COC(=O)/C=C/[C@H](O)[C@H](Cc1ccccc1)NC(=O)OC(C)(C)C` showed a melting point of 108 to 109 °C.

`CCc1cc(Br)cc(C(=O)Nc2ccc(F)cn2)n1` showed a melting point of 124 °C.

With `CC(N)=C(C(=O)OC(C)(C)C)C(=S)NC(=O)c1ccccc1`, the melting point was in the range of 107 to 110 °C.

Regarding `COc1ccc(C2CCN(c3c(C)c(C)c4c(c3C)C(O)(c3ccc(F)cc3)C(C)(C)O4)CC2)cc1OC` (centres undefined), the melting point fell in the range of 150 to 152 °C.

Molecule `CC(C)(C)n1nnc(-c2ccc(CCC(=O)O)cc2)n1` returned a melting point of 88 to 90 °C.

`CCCCCCCCc1sc(NC(=O)C2(C)Cc3cc(C)ccc3N2Cc2cccc(C(=O)OC)c2)nc1-c1cc(OC)c(Cl)cc1OC` (centres undefined) showed a melting point of 165 to 166 °C.

In turn, `N#CCc1cc(Br)c(C(=O)c2ccc(Cl)cc2)[nH]1` returned a melting point of 185 to 186 °C.

`Cc1ccc2c(c1)sc1ncc(C(O)CCc3ccccc3)n12` (centres undefined) gave a melting point of 209 to 210 °C.

`COc1ccc(Cn2cc3nc(Cl)nc(OCc4ccccc4)c3n2)cc1` gave a melting point of 150 to 153 °C.

For `Cc1ccc(Nc2nc(-c3ccccc3)c(-c3nc4ccccc4c(=O)n3-c3ccc(Cl)cc3)s2)cc1`, the melting point lay in the range of 225 to 227 °C.

`COc1cc2c(cc1Nc1ncc(Cl)c(Nc3ccccc3S(=O)(=O)N3CCCC3)n1)NC(=O)CN(CC1CC1)C2` returned a melting point of 142 °C.

Molecule `O=C1c2ccccc2C(=O)N1C[C@@H](O)COc1ccc(Cl)cc1O` returned a melting point of 214 to 218 °C.

`Cc1nc2c(c(-c3cccc([N+](=O)[O-])c3)c1C(=O)OCCO)C(=O)OC2`: the melting point was determined as 130 °C.

`O=S(=O)(c1ccc2ccccc2c1)n1ccc2ccccc21` registered a melting point of 103 to 105 °C.

`COC(=O)N1C(=O)NC(C)=C(C(=O)OC(C)C)C1c1cccc(Cl)c1Cl` (centres undefined) registered a melting point of 208 to 210 °C.

The molecule `C(=Cc1ccc(-c2ccc(C=Cc3ccccc3)cc2)cc1)c1ccccc1` came in with a melting point of 323 to 325 °C.

As for `CSC(=S)N1CCN(Cc2cc(OC(C)=O)ccc2O)CC1`, the melting point worked out at 124 °C.

For the molecule `O=C(O)CN1CC(NC(=O)Cc2ccccc2)C1=O` (centres undefined), the melting point lay in the range of 144 to 145 °C.

Consider `C=C(C)Cc1c(O)c(C)c(C)c2c1CC(C)N2C=O` (centres undefined), for which the melting point was 133 to 135 °C.

Molecule `Cc1nc2cc(N(C)C(=O)c3ccc(Cl)cc3Cl)ccc2n1C` returned a melting point of 245 to 247 °C.

Regarding `Nc1ncc(-c2ccc(=O)n(Cc3ccccc3)n2)c(-c2ccccc2)n1`, the melting point lay in the range of 229 to 230 °C.

Turning to `CCCCCC(O)c1cccc(OCc2cccc(CC(=O)O)c2)c1` (centres undefined), the melting point lay in the range of 111 to 113 °C.

Molecule `NC(N)=Nc1nc(-c2ccc(CNC(=O)CS(=O)Cc3ccco3)o2)cs1` (centres undefined) gave a melting point of 208 to 209 °C.

In turn, `COC(=O)NNC(=O)CC(C)(C)C` displayed a melting point of 83 to 84.5 °C.

`C1=Cc2ccccc2C(N2CCNCC2)c2ccccc21`: the melting point was in the range of 139 to 141 °C.

The molecule `Fc1ccc(-c2c[nH]c([C@@H](NC3CCC3)C3CCCCC3)n2)cc1` showed a melting point of 170 to 172 °C.

As for `CCCCOC(=O)c1nc(Cl)c2ccc(OC(C)C)cc2c1O`, the melting point was 116 to 118 °C.

`CCCCOCCOc1ccc(-c2ccc(N3CCCCCC3)c(C=C(C)C(=O)O)c2)cc1` gave a melting point of 124 to 126 °C.

`CC(C)c1ccc(C2c3cc(NCc4ccccc4)ccc3OC2(C)C)cc1` (centres undefined) came in with a melting point of 85 to 86 °C.

As for `O=S(c1cc(Cl)c(-n2cccn2)c(Cl)c1)C(F)(F)F` (centres undefined), the melting point was 86 to 91 °C.

The molecule `COc1cc(NS(C)(=O)=O)ccc1C1=NC2=CCC(=O)NC2=N1` had a melting point greater than 255 °C.

The molecule `Cc1cccc(N2CCN(c3ccc(OCc4ccccc4)nn3)CC2)c1` came in with a melting point of 159 °C.

`CCOC(=O)c1cc(OC(C)=O)c(OC(C)=O)c(OC(C)=O)c1` displayed a melting point of 76 to 78 °C.

In turn, `CNc1nn2nnnc2c2c1CCCC2` came in with a melting point of 318 °C.

The molecule `Cc1nnc(-c2ccc3occ(-c4cccnc4)c3c2)o1` gave a melting point of 139 to 140 °C.

In turn, `CC(=O)Nc1cc(C)c2c(c1C)CC(C)(C)O2` showed a melting point of 161 to 162 °C.

As to `Nc1ccc(C(=O)NNC(=O)CCCCN2CCC(Cc3ccccc3)CC2)cc1`, the melting point was in the range of 163 to 165 °C.

`N#CCCCCOc1ccc(C=Cc2ccncc2)cc1` gave a melting point of 85 to 87 °C.

Molecule `O=C(CCl)N1CC(c2ccc(Cl)cc2)Sc2ccccc21` (centres undefined) yielded a melting point of 94 to 95 °C.

For the molecule `CCCCc1cc2ccccc2c(Cc2ccc(C(=O)O)cc2)n1`, the melting point was 112 °C.

The molecule `CCCC(O)C1(C)OC(C)=C(O)C1=O` (centres undefined) came in with a melting point of 103 to 104 °C.

On to `O=c1[nH]nc2c3c(cccc13)Oc1ccc(COP(=O)(O)O)cc1-2`, for which the melting point was in the range of 246 to 252 °C.

Molecule `CC(C)(C)c1cccc(C[C@@H](NC(=O)c2cccc3c(Cl)cccc23)[C@@H](O)c2cccc(Cl)c2)c1` (racemic) yielded a melting point of 91 to 93 °C.

`CON=C1CSc2ccccc2CN1`: the melting point was in the range of 101 to 102 °C.

Molecule `CNC(=S)NCCCSc1ncco1` registered a melting point of 43 to 45 °C.

In the case of `COc1cc2c(cc1Nc1ncc(Cl)c(Nc3ccc(N4CCOCC4)cc3OC)n1)C(C)(C)CCC(=O)N2`, the melting point fell in the range of 246 to 248 °C.

In turn, `COc1ccc(CCc2ccc(NC(=O)C(=O)c3cccc(C(C)(C)C)c3O)cc2)cc1OC` gave a melting point of 143 to 144 °C.

With `CC(C)OC(=O)C(C(=O)O)=C1SCCS1`, the melting point lay within 104 to 106 °C.

With `CS(=O)(=O)c1ccc(-c2onc3c2-c2ccccc2CC3)cc1`, the melting point lay within 181 to 182 °C.

In turn, `COC(=O)c1ccccc1Sc1c(O)c2c(Cl)cc(Cl)cc2[nH]c1=O` returned a melting point of 158 to 160 °C.

With `O=c1[nH]c2cc(Cl)ccc2c(O)c1-c1cccc([N+](=O)[O-])c1`, the melting point is 329 to 332 °C.

The molecule `Cc1c(-c2ccccc2)oc2c(NC(=O)NCCCl)cccc2c1=O` had a melting point of 213 to 214 °C.

Consider `CC(C)[C@@H](C(=O)N[C@@H](Cc1ccccc1)[C@@H](O)[C@H](O)[C@H](Cc1ccccc1)NC(=O)[C@H](C(C)C)N(C)C)N(C)C`, for which the melting point is 200 to 204 °C.

In turn, `C#CCNC(NCCSCc1[nH]cnc1C)=C(C#N)C(N)=O` had a melting point of 88 to 94 °C.

The molecule `O=C1CCC(c2cccc(F)c2)(c2cccc(F)c2)CC1` yielded a melting point of 95 °C.

Consider `Cc1ccc(S(=O)(=O)N(c2ccc(C#N)cc2[N+](=O)[O-])C(C)C)cc1`, for which the melting point was in the range of 125 to 126 °C.

Take `N#Cc1cc(Cl)ccc1Oc1cc(Br)c(F)cc1O`: the melting point was in the range of 208 to 210 °C.

With `CCOC(=O)c1cc2c(OCc3ccccc3)c(Cc3ccccc3)ccc2[nH]1`, the melting point is 129 to 131 °C.

`OCCC1(CCO)CCN(Cc2ccccc2)CC1` showed a melting point of 75 to 78 °C.

Consider `O=C(c1nc(-c2ccccc2)nc2ccccc12)N1CCC(O)CC1`, for which the melting point is 209 °C.

`O=C1N(Cc2ccccn2)c2ccc3ncsc3c2C12COc1cc3c(cc12)OCCO3` (centres undefined): the melting point was 156 to 158 °C.

Take `CSCCOc1ccc(-c2coc3ccc(-c4nnc(C)o4)cc23)cc1`: the melting point lay in the range of 89 to 90 °C.

As usually defined, the melting point is the temperature of the solid-liquid transition.
